Measured values as given in US9695154B2, “Heteroaryl inhibitors of sumo activating enzyme” (MILLENNIUM PHARMACEUTICALS, INC., priority 2013, dated 2017).

Molecular target: T1, recombinant human SAE enzyme (Homo sapiens, UniProt Q9UBT2)
T1 sequence (Q9UBT2 1-640): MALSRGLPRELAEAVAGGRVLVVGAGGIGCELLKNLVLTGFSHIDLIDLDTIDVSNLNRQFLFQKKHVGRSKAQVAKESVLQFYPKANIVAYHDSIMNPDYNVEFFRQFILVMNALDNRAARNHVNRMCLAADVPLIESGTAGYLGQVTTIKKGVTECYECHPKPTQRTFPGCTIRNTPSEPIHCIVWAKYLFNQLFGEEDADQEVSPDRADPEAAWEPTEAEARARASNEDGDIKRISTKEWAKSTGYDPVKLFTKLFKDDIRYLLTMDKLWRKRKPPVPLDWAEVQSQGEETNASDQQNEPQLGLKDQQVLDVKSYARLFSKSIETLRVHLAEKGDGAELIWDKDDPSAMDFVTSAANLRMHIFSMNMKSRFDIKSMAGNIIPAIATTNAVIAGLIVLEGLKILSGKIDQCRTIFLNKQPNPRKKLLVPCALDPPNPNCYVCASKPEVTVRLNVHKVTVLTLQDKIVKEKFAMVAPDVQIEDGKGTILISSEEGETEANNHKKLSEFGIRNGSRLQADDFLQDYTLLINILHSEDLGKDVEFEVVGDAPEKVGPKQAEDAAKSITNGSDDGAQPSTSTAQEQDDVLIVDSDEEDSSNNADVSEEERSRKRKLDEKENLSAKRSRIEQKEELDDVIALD
T1 sequence (Q9UBE0 1-346 partner): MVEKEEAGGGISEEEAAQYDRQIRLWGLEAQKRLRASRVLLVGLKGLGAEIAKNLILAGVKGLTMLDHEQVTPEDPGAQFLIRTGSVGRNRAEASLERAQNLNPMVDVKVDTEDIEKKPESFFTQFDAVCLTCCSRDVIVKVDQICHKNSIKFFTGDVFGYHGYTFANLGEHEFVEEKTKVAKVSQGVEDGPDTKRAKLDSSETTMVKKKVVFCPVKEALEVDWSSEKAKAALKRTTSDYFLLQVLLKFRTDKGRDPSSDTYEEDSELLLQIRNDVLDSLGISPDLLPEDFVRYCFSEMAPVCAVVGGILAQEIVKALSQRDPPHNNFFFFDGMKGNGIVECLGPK
Assay: SAE HTRF Enzyme Assay
Format: biochemical
Conditions: for IC50: class symbols A-C; for inhibition at 0.111 µM: compound concentration 0.111 μM, read-out: Percent Inhibition
Method in brief: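 SAE 0.11 nM; ATP 0.5 μM; Sumo-Flag 0.125 μM; Ubc9-GST 0.01 μM; 250 μM GSH, 5 mM MgCl2, pH 7.5. 105 min, 24° C. EDTA/KF stop plus Eu/APC antibodies, 2 h, TR-FRET. % inhibition or IC50.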

| SMILES | IC50 [nM] | inhibition at 0.111 µM [%] |
| --- | --- | --- |
| NS(=O)(=O)OC[C@H]1C[C@@H](Nc2ncncc2C(=O)c2ccn(Cc3cc4ccccc4o3)n2)C[C@@H]1O [Compound I-17, {(1R,2S,4R)-4-[(5-{[1-(1-benzofuran-2-ylmethyl)-1H-pyrazol-3-yl]carbonyl}pyrimidin-4-yl)amino]-2-hydroxycyclopentyl}methyl sulfamate] | < 10 | 99 |
| NS(=O)(=O)OC[C@H]1C[C@@H](Nc2ccncc2C(=O)c2ccn(Cc3cccc(OC(F)(F)F)c3)n2)C[C@@H]1O [Compound I-18, [(1R,2S,4R)-2-hydroxy-4-{[3({1-[3-(trifluoromethoxy)benzyl]-1H-pyrazol-3-yl}carbonyl)pyridin-4-yl]amino}cyclopentyl]methyl sulfamate] | < 10 | 96 |
| NS(=O)(=O)OC[C@H]1C[C@@H](Nc2ncncc2C(=O)c2ccn(CC(=O)N3CCCC3)n2)[C@@H](F)[C@@H]1O [Compound I-19, [(1R,2R,3R,4R)-3-Fluoro-2-hydroxy-4-{[5-({1-[2-oxo-2-(pyrrolidin-1-yl)ethyl]-1H-pyrazol-3-yl}carbonyl)pyrimidin-4-yl]amino}cyclopentyl]methyl sulfamate] | 100 to 1000 | 20 |
| NS(=O)(=O)OC[C@H]1C[C@@H](Nc2ncncc2C(=O)c2ccn(Cc3cccc(OC(F)(F)F)c3)n2)C[C@@H]1O [Compound I-20, [(1R,2S,4R)-2-hydroxy-4-{[5-({1-[3-(trifluoromethoxy)benzyl]-1H-pyrazol-3-yl}carbonyl)pyrimidin-4-yl]amino}cyclopentyl]methyl sulfamate] | < 10 | 96 |
| NS(=O)(=O)OC[C@H]1C[C@@H](Nc2ncncc2C(=O)c2ccn(Cc3ccc(F)c(C(F)(F)F)c3)c2)C[C@@H]1O [Compound I-21, [(1R,2S,4R)-4-{[5-({1-[4-fluoro-3-(trifluoromethyl)benzyl]-1H-pyrrol-3-yl}carbonyl)pyrimidin-4-yl]amino}-2-hydroxycyclopentyl]methyl sulfamate] | < 10 | 99 |
| Cc1cccc(Cn2ccc(C(=O)c3cncnc3N[C@@H]3C[C@H](COS(N)(=O)=O)[C@@H](O)C3)n2)c1F [Compound I-22, {(1R,2S,4R)-4-[(5-{[1-(2-fluoro-3-methylbenzyl)-1H-pyrazol-3-yl]carbonyl}pyrimidin-4-yl)amino]-2-hydroxycyclopentyl}methyl sulfamate] | < 10 | 100 |
| NS(=O)(=O)OC[C@H]1C[C@@H](Nc2ncncc2C(=O)c2ccn(Cc3cccc(OC(F)(F)F)c3)n2)[C@@H](F)[C@@H]1O [Compound I-23, [(1R,2R,3R,4R)-3-Fluoro-2-hydroxy-4-{[5-({1-[3-(trifluoromethoxy)benzyl]-1H-pyrazol-3-yl}carbonyl)pyrimidin-4-yl]amino}cyclopentyl]methyl sulfamate] | < 10 | 98 |
| NS(=O)(=O)OC[C@H]1C[C@@H](Nc2ncncc2C(=O)c2ccn(Cc3ccc(Br)o3)c2)[C@@H](F)[C@@H]1O [Compound I-24, [(1R,2R,3R,4R)-4-{[5-({1-[(5-Bromo-2-furyl)methyl]-1H-pyrrol-3-yl}carbonyl)pyrimidin-4-yl]amino}-3-fluoro-2-hydroxycyclopentyl]methyl sulfamate] | < 10 | 100 |
| N#Cc1cccc(Cn2ccc(C(=O)c3cncnc3N[C@@H]3C[C@H](COS(N)(=O)=O)[C@@H](O)[C@H]3O)n2)c1 [Compound I-25, {(1R,2R,3S,4R)-4-[(5-{[1-(3-cyanobenzyl)-1H-pyrazol-3-yl]carbonyl}pyrimidin-4-yl)amino]-2,3-dihydroxycyclopentyl}methyl sulfamate] | < 10 | 93 |
| CC(C)(C)C#CCn1ccc(C(=O)c2cncnc2N[C@@H]2C[C@H](COS(N)(=O)=O)[C@@H](O)[C@@H]2F)c1 [Compound I-26, {(1R,2R,3R,4R)-4-[(5-{[1-(4,4-dimethylpent-2-yn-1-yl)-1H-pyrrol-3-yl]carbonyl}pyrimidin-4-yl)amino]-3-fluoro-2-hydroxycyclopentyl}methyl sulfamate] | 10 to 100 | 90 |
| NS(=O)(=O)OC[C@H]1C[C@@H](Nc2ncncc2C(=O)c2ccn(CC#CC3(O)CCOCC3)n2)C[C@@H]1O [Compound I-27, [(1R,2S,4R)-2-hydroxy-4-{[5-({1-[3-(4-hydroxytetrahydro-2H-pyran-4-yl)prop-2-yn-1-yl]-1H-pyrazol-3-yl}carbonyl)pyrimidin-4-yl]amino}cyclopentyl]methyl sulfamate] | 100 to 1000 | 9 |
| CCOCCn1ccc(C(=O)c2cncnc2N[C@@H]2C[C@H](COS(N)(=O)=O)[C@@H](O)[C@H]2O)n1 [Compound I-28, {(1R,2R,3S,4R)-4-[(5-{[1-(2-ethoxyethyl)-1H-pyrazol-3-yl]carbonyl}pyrimidin-4-yl)amino]-2,3-dihydroxycyclopentyl}methyl sulfamate] | 10 to 100 | 78 |
| NS(=O)(=O)OC[C@H]1C[C@@H](Nc2ncncc2C(=O)c2ccn(Cc3cncc(Br)c3)n2)C[C@@H]1O [Compound I-29, [(1R,2S,4R)-4-{[5-({1-[(5-bromopridin-3-yl)methyl]-1H-pyrazol-3-yl}carbonyl)pyrimidin-4-yl]amino}-2-hydroxycyclopentyl]methyl sulfamate] | 10 to 100 | 94 |
| NS(=O)(=O)OC[C@H]1C[C@@H](Nc2ncncc2C(=O)c2ccn(CC3CC3)n2)[C@H](O)[C@@H]1O [Compound I-30, {(1R,2R,3S,4R)-4-[(5-{[1-(cyclopropylmethyl)-1H-pyrazol-3-yl]carbonyl}pyrimidin-4-yl)amino]-2,3-dihydroxycyclopentyl}methyl sulfamate] | 10 to 100 | 66 |
| Cc1cc(C(=O)c2cncnc2N[C@@H]2C[C@H](COS(N)(=O)=O)[C@@H](O)[C@H]2O)nn1Cc1ccccc1 [Compound I-31, [(1R,2R,3S,4R)-4-({5-[(1-benzyl-5-methyl-1H-pyrazol-3-yl)carbonyl]pyrimidin-4-yl}amino)-2,3-dihydroxycyclopentyl]methyl sulfamate] | < 10 | 94 |
| Cc1ccc(F)c(Cn2ccc(C(=O)c3cncnc3N[C@@H]3C[C@H](COS(N)(=O)=O)[C@@H](O)C3)n2)c1 [Compound I-32, {(1R,2S,4R)-4-[(5-{[1-(2-fluoro-5-methylbenzyl)-1H-pyrazol-3-yl]carbonyl}pyrimidin-4-yl)amino]-2-hydroxycyclopentyl}methyl sulfamate] | < 10 | 98 |
| NS(=O)(=O)OC[C@H]1C[C@@H](Nc2ncncc2C(=O)c2ccn(CCc3c[nH]c4ccccc34)n2)[C@H](O)[C@@H]1O [Compound I-33, [(1R,2R,3S,4R)-2,3-dihydroxy-4-{[5-({1-[2-(1H-indol-3-yl)ethyl]-1H-pyrazol-3-yl}carbonyl)pyrimidin-4-yl]amino}cyclopentyl]methyl sulfamate] | < 10 | 98 |
| NS(=O)(=O)OC[C@H]1C[C@@H](Nc2ncncc2C(=O)c2ccn(Cc3ccc(Cl)c(C(F)(F)F)c3)n2)[C@H](O)[C@@H]1O [Compound I-34, [(1R,2R,3S,4R)-4-{[5-({1-[4-chloro-3-(trifluoromethyl)benzyl]-1H-pyrazol-3-yl}carbonyl)pyrimidin-4-yl]amino}-2,3-dihydroxycyclopentyl] methyl sulfamate] | < 10 | 99 |
